Numbers after ± are expanded uncertainties.
Experiment: xn = mol fraction of the nth substance listed
Conditions: Liquid, Vibrating tube method

COC(=O)OC [dimethyl carbonate] + CCCCCC
mass density [kg/m3]
Conditions	100 kPa	5000 kPa	10000 kPa	20000 kPa	30000 kPa	40000 kPa
293.15 K, x1 = 0.1	684.2 ± 0.3	689.7 ± 0.3	694.6 ± 0.4	703.9 ± 0.4	712.2 ± 0.5	719.8 ± 0.6
293.15 K, x1 = 0.2	712 ± 0.3	717.6 ± 0.4	722.6 ± 0.4	732 ± 0.4	740.4 ± 0.5	748.1 ± 0.6
293.15 K, x1 = 0.3	742.7 ± 0.3	748.3 ± 1.5	753.3 ± 0.3	762.8 ± 0.4	771.3 ± 0.5	779.2 ± 0.5
293.15 K, x1 = 0.4	776.5 ± 0.3	782.1 ± 1.6	787.2 ± 0.4	796.7 ± 0.4	805.3 ± 0.4	813.2 ± 0.5
293.15 K, x1 = 0.5	813.8 ± 0.4	819.4 ± 0.4	824.5 ± 0.4	834 ± 0.4	842.6 ± 0.4	850.6 ± 0.5
293.15 K, x1 = 0.6	855 ± 0.4	860.5 ± 0.4	865.5 ± 0.4	875 ± 0.4	883.6 ± 0.4	891.5 ± 0.4
293.15 K, x1 = 0.7	900.5 ± 0.4	905.9 ± 0.8	910.9 ± 0.3	920.2 ± 0.3	928.7 ± 0.3	936.6 ± 0.4
293.15 K, x1 = 0.8	951.6 ± 0.4	956.8 ± 0.7	961.6 ± 0.3	970.7 ± 0.3	978.9 ± 0.3	986.8 ± 0.3
293.15 K, x1 = 0.9	1008.5 ± 0.3	1013.4 ± 0.3	1018 ± 0.3	1026.7 ± 0.3	1034.6 ± 0.3	1042.3 ± 0.3
293.15 K, x1 = 0.95	1038.4 ± 0.3	1043.2 ± 0.3	1047.6 ± 0.3	1056.1 ± 0.3	1063.9 ± 0.3	1071.5 ± 0.3
293.15 K, x1 = 1	1069.8 ± 0.3	1074.4 ± 0.3	1078.6 ± 0.3	1086.9 ± 0.3	1094.5 ± 0.3	1101.9 ± 0.4
298.15 K, x1 = 0.1	679.5 ± 0.3	685.1 ± 0.3	690.3 ± 0.3	699.8 ± 0.4	708.4 ± 0.5	716 ± 0.6
298.15 K, x1 = 0.2	707 ± 0.3	712.8 ± 1.1	718 ± 0.4	727.7 ± 0.4	736.4 ± 0.5	744.2 ± 0.6
298.15 K, x1 = 0.3	737.5 ± 0.3	743.3 ± 1.6	748.6 ± 0.4	758.3 ± 0.4	767.2 ± 0.5	775.1 ± 0.5
298.15 K, x1 = 0.4	771.1 ± 0.3	776.9 ± 1.8	782.2 ± 0.4	792 ± 0.4	800.9 ± 0.4	808.9 ± 0.5
298.15 K, x1 = 0.5	808.2 ± 0.3	814 ± 0.4	819.3 ± 0.4	829.1 ± 0.4	838 ± 0.4	846.1 ± 0.5
298.15 K, x1 = 0.6	849.2 ± 0.3	854.9 ± 0.3	860.2 ± 0.3	869.9 ± 0.4	878.8 ± 0.4	886.9 ± 0.4
298.15 K, x1 = 0.7	894.5 ± 0.3	900.2 ± 1.1	905.3 ± 0.3	914.9 ± 0.3	923.7 ± 0.3	931.7 ± 0.3
298.15 K, x1 = 0.8	945.4 ± 0.3	950.8 ± 0.3	955.8 ± 0.3	965.1 ± 0.3	973.7 ± 0.3	981.6 ± 0.3
298.15 K, x1 = 0.9	1002.1 ± 0.3	1007.3 ± 0.3	1012 ± 0.3	1020.8 ± 0.3	1029.1 ± 0.3	1036.9 ± 0.3
298.15 K, x1 = 0.95	1032 ± 0.3	1036.9 ± 0.3	1041.5 ± 0.3	1050.2 ± 0.3	1058.2 ± 0.3	1065.9 ± 0.3
298.15 K, x1 = 1	1063.2 ± 0.3	1068 ± 0.3	1072.4 ± 0.3	1080.8 ± 0.3	1088.7 ± 0.3	1096.2 ± 0.4
303.15 K, x1 = 0.1	674.6 ± 0.3	680.3 ± 0.3	685.7 ± 0.4	695.6 ± 0.4	704.3 ± 0.5	712.2 ± 0.6
303.15 K, x1 = 0.2	701.9 ± 0.3	707.7 ± 0.3	713.3 ± 0.4	723.3 ± 0.4	732.2 ± 0.5	740.2 ± 0.6
303.15 K, x1 = 0.3	732.2 ± 0.3	738 ± 2.1	743.6 ± 0.4	753.7 ± 0.4	762.7 ± 0.5	770.9 ± 0.5
303.15 K, x1 = 0.4	765.6 ± 0.3	771.5 ± 0.9	777.1 ± 0.3	787.2 ± 0.4	796.3 ± 0.4	804.6 ± 0.5
303.15 K, x1 = 0.5	802.5 ± 0.3	808.3 ± 0.4	813.9 ± 0.4	824.1 ± 0.4	833.3 ± 0.4	841.6 ± 0.5
303.15 K, x1 = 0.6	843.3 ± 0.3	849.5 ± 0.3	855 ± 0.3	865 ± 0.4	874.1 ± 0.4	882.3 ± 0.4
303.15 K, x1 = 0.7	888.5 ± 0.3	894.5 ± 1.9	899.9 ± 0.3	909.8 ± 0.3	918.7 ± 0.3	926.9 ± 0.3
303.15 K, x1 = 0.8	939.1 ± 0.3	944.8 ± 0.3	950 ± 0.3	959.7 ± 0.3	968.5 ± 0.3	976.5 ± 0.3
303.15 K, x1 = 0.9	995.7 ± 0.3	1000.9 ± 0.3	1005.9 ± 0.3	1015.1 ± 0.3	1023.6 ± 0.3	1031.4 ± 0.3
303.15 K, x1 = 0.95	1025.4 ± 0.3	1030.4 ± 0.3	1035.2 ± 0.3	1044.2 ± 0.3	1052.6 ± 0.3	1060.2 ± 0.3
303.15 K, x1 = 1	1056.5 ± 0.3	1061.3 ± 0.3	1066 ± 0.3	1074.7 ± 0.3	1082.9 ± 0.3	1090.4 ± 0.4
308.15 K, x1 = 0.1	669.8 ± 0.3	675.7 ± 0.3	681.4 ± 0.4	691.5 ± 0.4	700.6 ± 0.5	708.6 ± 0.6
308.15 K, x1 = 0.2	696.9 ± 0.3	703 ± 1.3	708.7 ± 0.4	719 ± 0.4	728.3 ± 0.5	736.4 ± 0.6
308.15 K, x1 = 0.3	727 ± 0.3	733.1 ± 0.8	738.8 ± 0.4	749.3 ± 0.4	758.7 ± 0.5	766.9 ± 0.5
308.15 K, x1 = 0.4	760.2 ± 0.3	766.3 ± 0.5	772 ± 0.3	782.6 ± 0.4	792.1 ± 0.4	800.4 ± 0.5
308.15 K, x1 = 0.5	796.9 ± 0.3	802.9 ± 0.4	808.7 ± 0.4	819.2 ± 0.4	828.8 ± 0.4	837.2 ± 0.5
308.15 K, x1 = 0.6	837.4 ± 0.3	843.8 ± 0.3	849.5 ± 0.3	859.9 ± 0.4	869.4 ± 0.4	877.7 ± 0.4
308.15 K, x1 = 0.7	882.5 ± 0.3	888.6 ± 1.5	894.2 ± 0.3	904.4 ± 0.3	913.8 ± 0.3	922.1 ± 0.3
308.15 K, x1 = 0.8	932.8 ± 0.3	938.7 ± 0.4	944.1 ± 0.3	954.1 ± 0.3	963.2 ± 0.3	971.5 ± 0.3
308.15 K, x1 = 0.9	989.2 ± 0.3	994.6 ± 0.3	999.7 ± 0.3	1009.3 ± 0.3	1018.1 ± 0.3	1026.1 ± 0.3
308.15 K, x1 = 0.95	1018.8 ± 0.3	1023.8 ± 0.3	1028.8 ± 0.3	1038.1 ± 0.3	1046.8 ± 0.3	1054.7 ± 0.3
308.15 K, x1 = 1	1049.8 ± 0.3	1054.6 ± 0.3	1059.4 ± 0.3	1068.5 ± 0.3	1077 ± 0.3	1084.8 ± 0.3
313.15 K, x1 = 0.1	664.8 ± 0.3	671.1 ± 0.3	677 ± 0.3	687.5 ± 0.4	696.7 ± 0.5	705 ± 0.6
313.15 K, x1 = 0.2	691.7 ± 0.3	698 ± 0.9	704.1 ± 0.3	714.7 ± 0.4	724.2 ± 0.5	732.6 ± 0.6
313.15 K, x1 = 0.3	721.5 ± 0.3	727.8 ± 2.5	733.9 ± 0.4	744.7 ± 0.4	754.3 ± 0.5	762.9 ± 0.5
313.15 K, x1 = 0.4	754.5 ± 0.3	760.9 ± 0.7	767 ± 0.3	777.9 ± 0.4	787.5 ± 0.4	796.3 ± 0.5
313.15 K, x1 = 0.5	791 ± 0.3	797.4 ± 0.3	803.4 ± 0.4	814.3 ± 0.4	824 ± 0.4	832.8 ± 0.5
313.15 K, x1 = 0.6	831.4 ± 0.3	837.6 ± 0.3	843.7 ± 0.3	854.5 ± 0.4	864.1 ± 0.4	872.9 ± 0.4
313.15 K, x1 = 0.7	876.3 ± 0.3	882.4 ± 1	888.3 ± 0.3	898.9 ± 0.3	908.5 ± 0.3	917.2 ± 0.3
313.15 K, x1 = 0.8	926.4 ± 0.3	932.2 ± 0.3	937.9 ± 0.3	948.2 ± 0.3	957.6 ± 0.3	966.1 ± 0.2
313.15 K, x1 = 0.9	982.5 ± 0.3	988 ± 0.3	993.4 ± 0.3	1003.2 ± 0.3	1012.2 ± 0.3	1020.6 ± 0.3
313.15 K, x1 = 0.95	1012.1 ± 0.3	1017.4 ± 0.3	1022.5 ± 0.3	1032.1 ± 0.3	1041 ± 0.3	1049.1 ± 0.3
313.15 K, x1 = 1	1043 ± 0.3	1048.1 ± 0.3	1053 ± 0.3	1062.3 ± 0.3	1071 ± 0.3	1079 ± 0.3

From the NIST ThermoML archive (doi:10.1016/j.jct.2010.06.011)
